Key:
Conditions in all cases: Compound concentration 10 µM
[1] = target: Delta-type opioid receptor (Homo sapiens) (UniProt P41143)
Description: PDSP Primary Binding target: OPRD1 - Compounds are tested at 10 uM concentration, plate are incubated at room temperature in the dark for 90 minutes. Reaction are stopped by vacuum filtration onto 0.3% polyethyleneimine soaked filter mats using Filtermate harvester. Scintilation cocktail is then melted onto microwave-dried filters on a hot plate and the radio activity is counted in Microbia counter.

[2] = target: 5-hydroxytryptamine receptor 5A (Homo sapiens) (UniProt P47898)
Description: PDSP Primary Binding target: HTR5A - Compounds are tested at 10 uM concentration, plate are incubated at room temperature in the dark for 90 minutes. Reaction are stopped by vacuum filtration onto 0.3% polyethyleneimine soaked filter mats using Filtermate harvester. Scintilation cocktail is then melted onto microwave-dried filters on a hot plate and the radio activity is counted in Microbia counter.

[3] = target: T1, Muscarinic acetylcholine receptor M2 (Homo sapiens) (UniProt P08172)
T1 sequence (whole entry): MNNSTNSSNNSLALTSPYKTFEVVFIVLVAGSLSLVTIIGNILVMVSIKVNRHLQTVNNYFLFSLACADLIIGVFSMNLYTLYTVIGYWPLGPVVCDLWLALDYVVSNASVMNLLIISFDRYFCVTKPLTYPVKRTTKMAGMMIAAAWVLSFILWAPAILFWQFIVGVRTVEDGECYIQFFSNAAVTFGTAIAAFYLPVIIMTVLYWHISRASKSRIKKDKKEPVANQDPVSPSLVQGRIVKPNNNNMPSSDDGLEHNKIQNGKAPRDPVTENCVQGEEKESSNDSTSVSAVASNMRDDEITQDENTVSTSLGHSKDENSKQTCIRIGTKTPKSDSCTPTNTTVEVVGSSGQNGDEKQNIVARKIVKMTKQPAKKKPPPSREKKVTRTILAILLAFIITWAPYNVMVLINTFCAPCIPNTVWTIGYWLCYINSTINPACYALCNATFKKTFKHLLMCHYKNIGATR
Description: PDSP Primary Binding target: CHRM2 - Compounds are tested at 10 uM concentration, plate are incubated at room temperature in the dark for 90 minutes. Reaction are stopped by vacuum filtration onto 0.3% polyethyleneimine soaked filter mats using Filtermate harvester. Scintilation cocktail is then melted onto microwave-dried filters on a hot plate and the radio activity is counted in Microbia counter.

[4] = target: Muscarinic acetylcholine receptor M3 (Homo sapiens) (UniProt P20309)
Chain of Muscarinic acetylcholine receptor M3 (Homo sapiens) (P20309 whole entry, looked up): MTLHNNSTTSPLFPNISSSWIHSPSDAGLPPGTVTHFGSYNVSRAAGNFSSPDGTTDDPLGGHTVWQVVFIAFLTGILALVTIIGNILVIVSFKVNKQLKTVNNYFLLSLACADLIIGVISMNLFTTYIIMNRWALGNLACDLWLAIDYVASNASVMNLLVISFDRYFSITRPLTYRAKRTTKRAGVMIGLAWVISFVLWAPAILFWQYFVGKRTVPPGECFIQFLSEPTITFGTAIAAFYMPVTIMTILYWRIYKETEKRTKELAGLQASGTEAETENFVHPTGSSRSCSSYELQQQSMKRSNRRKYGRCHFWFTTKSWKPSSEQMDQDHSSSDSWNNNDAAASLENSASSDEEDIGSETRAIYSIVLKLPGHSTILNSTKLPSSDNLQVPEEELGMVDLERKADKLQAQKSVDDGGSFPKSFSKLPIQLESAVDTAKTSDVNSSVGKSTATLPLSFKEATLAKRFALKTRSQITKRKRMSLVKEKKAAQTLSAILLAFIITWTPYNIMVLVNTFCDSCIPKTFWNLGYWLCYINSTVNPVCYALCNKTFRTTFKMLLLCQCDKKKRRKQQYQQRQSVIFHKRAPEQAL
Description: PDSP Primary Binding target: CHRM3 - Compounds are tested at 10 uM concentration, plate are incubated at room temperature in the dark for 90 minutes. Reaction are stopped by vacuum filtration onto 0.3% polyethyleneimine soaked filter mats using Filtermate harvester. Scintilation cocktail is then melted onto microwave-dried filters on a hot plate and the radio activity is counted in Microbia counter.

[5] = target: Kappa-type opioid receptor (Homo sapiens) (UniProt P41145)
Chain of Kappa-type opioid receptor (Homo sapiens) (P41145 whole entry): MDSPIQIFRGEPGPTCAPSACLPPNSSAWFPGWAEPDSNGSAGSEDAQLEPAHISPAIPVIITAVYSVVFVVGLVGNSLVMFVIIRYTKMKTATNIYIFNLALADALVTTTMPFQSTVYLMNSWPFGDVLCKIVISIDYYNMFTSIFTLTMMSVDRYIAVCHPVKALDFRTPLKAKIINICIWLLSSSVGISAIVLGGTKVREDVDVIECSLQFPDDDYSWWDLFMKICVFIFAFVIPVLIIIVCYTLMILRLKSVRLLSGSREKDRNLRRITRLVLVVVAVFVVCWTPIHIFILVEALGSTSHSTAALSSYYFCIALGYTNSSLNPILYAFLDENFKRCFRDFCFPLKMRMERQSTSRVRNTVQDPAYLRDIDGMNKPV
Description: PDSP Primary Binding target: OPRK1 - Compounds are tested at 10 uM concentration, plate are incubated at room temperature in the dark for 90 minutes. Reaction are stopped by vacuum filtration onto 0.3% polyethyleneimine soaked filter mats using Filtermate harvester. Scintilation cocktail is then melted onto microwave-dried filters on a hot plate and the radio activity is counted in Microbia counter.

[6] = target: T2, Alpha-1A adrenergic receptor (Homo sapiens) (UniProt P35348)
T2 sequence (whole entry): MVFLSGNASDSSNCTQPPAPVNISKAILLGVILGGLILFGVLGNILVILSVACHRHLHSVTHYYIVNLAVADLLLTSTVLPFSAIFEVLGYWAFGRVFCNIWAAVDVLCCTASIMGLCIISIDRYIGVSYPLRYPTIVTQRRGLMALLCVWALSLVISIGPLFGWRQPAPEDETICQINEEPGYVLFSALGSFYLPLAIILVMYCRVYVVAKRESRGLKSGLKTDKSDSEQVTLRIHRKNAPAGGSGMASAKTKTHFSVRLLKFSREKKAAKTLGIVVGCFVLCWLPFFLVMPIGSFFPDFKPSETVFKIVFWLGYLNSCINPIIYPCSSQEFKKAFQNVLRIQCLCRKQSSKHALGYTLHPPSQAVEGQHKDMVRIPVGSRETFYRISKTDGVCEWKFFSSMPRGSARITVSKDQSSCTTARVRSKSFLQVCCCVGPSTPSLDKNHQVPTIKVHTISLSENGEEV
Description: PDSP Primary Binding target: ADRA1A - Compounds are tested at 10 uM concentration, plate are incubated at room temperature in the dark for 90 minutes. Reaction are stopped by vacuum filtration onto 0.3% polyethyleneimine soaked filter mats using Filtermate harvester. Scintilation cocktail is then melted onto microwave-dried filters on a hot plate and the radio activity is counted in Microbia counter.

[7] = target: T3, 5-hydroxytryptamine receptor 1A (Homo sapiens) (UniProt P08908)
T3 sequence (whole entry): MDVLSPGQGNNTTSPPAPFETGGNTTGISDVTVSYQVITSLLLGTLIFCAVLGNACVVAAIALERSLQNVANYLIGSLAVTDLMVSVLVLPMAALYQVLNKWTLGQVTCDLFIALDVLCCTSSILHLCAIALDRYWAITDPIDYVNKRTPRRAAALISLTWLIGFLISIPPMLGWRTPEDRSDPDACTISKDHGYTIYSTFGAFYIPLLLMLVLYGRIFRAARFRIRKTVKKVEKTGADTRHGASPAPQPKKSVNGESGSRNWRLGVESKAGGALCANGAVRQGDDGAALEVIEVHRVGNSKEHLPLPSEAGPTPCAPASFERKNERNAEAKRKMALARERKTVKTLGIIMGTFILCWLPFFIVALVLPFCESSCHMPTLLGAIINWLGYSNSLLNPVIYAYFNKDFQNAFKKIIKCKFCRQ
Description: PDSP Primary Binding target: HTR1A - Compounds are tested at 10 uM concentration, plate are incubated at room temperature in the dark for 90 minutes. Reaction are stopped by vacuum filtration onto 0.3% polyethyleneimine soaked filter mats using Filtermate harvester. Scintilation cocktail is then melted onto microwave-dried filters on a hot plate and the radio activity is counted in Microbia counter.

[8] = target: Histamine H1 receptor (Homo sapiens) (UniProt P35367)
Chain of Histamine H1 receptor (Homo sapiens) (P35367 whole entry): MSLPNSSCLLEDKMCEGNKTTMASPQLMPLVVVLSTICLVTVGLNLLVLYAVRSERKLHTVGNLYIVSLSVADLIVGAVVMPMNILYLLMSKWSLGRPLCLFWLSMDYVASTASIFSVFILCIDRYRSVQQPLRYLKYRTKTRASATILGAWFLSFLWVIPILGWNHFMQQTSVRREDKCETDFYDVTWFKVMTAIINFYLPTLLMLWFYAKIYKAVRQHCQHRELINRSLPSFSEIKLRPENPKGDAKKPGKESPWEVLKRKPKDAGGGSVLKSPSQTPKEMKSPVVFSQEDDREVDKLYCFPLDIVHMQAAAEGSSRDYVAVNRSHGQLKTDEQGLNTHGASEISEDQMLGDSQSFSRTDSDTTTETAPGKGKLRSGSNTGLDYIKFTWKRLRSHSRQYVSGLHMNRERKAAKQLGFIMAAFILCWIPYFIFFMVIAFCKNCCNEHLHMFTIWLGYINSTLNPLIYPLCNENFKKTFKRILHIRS
Description: PDSP Primary Binding target: HRH1 - Compounds are tested at 10 uM concentration, plate are incubated at room temperature in the dark for 90 minutes. Reaction are stopped by vacuum filtration onto 0.3% polyethyleneimine soaked filter mats using Filtermate harvester. Scintilation cocktail is then melted onto microwave-dried filters on a hot plate and the radio activity is counted in Microbia counter.

[9] = target: T4, Alpha-1B adrenergic receptor (Homo sapiens) (UniProt P35368)
T4 sequence (whole entry): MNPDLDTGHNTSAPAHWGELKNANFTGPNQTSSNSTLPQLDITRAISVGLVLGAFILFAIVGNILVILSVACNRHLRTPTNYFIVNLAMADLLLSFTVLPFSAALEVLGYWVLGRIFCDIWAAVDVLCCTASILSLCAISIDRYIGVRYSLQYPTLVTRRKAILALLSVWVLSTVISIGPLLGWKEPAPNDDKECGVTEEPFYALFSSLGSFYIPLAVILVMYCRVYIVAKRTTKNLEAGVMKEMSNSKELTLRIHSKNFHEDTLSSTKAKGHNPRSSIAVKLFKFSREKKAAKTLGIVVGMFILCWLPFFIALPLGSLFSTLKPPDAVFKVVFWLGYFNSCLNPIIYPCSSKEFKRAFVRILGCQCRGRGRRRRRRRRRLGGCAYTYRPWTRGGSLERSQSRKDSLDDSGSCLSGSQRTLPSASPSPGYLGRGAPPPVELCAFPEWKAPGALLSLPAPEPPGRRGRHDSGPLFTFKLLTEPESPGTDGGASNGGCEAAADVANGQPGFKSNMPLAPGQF
Description: PDSP Primary Binding target: ADRA1B - Compounds are tested at 10 uM concentration, plate are incubated at room temperature in the dark for 90 minutes. Reaction are stopped by vacuum filtration onto 0.3% polyethyleneimine soaked filter mats using Filtermate harvester. Scintilation cocktail is then melted onto microwave-dried filters on a hot plate and the radio activity is counted in Microbia counter.

[10] = target: Translocator protein (Homo sapiens) (UniProt P30536)
Chain of Translocator protein (Homo sapiens) (P30536 whole entry): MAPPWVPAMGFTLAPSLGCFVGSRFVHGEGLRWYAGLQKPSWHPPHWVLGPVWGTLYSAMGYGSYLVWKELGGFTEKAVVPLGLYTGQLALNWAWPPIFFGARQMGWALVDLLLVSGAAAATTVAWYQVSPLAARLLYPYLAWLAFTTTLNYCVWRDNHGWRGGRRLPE
Description: PDSP Primary Binding target: TSPO - Compounds are tested at 10 uM concentration, plate are incubated at room temperature in the dark for 90 minutes. Reaction are stopped by vacuum filtration onto 0.3% polyethyleneimine soaked filter mats using Filtermate harvester. Scintilation cocktail is then melted onto microwave-dried filters on a hot plate and the radio activity is counted in Microbia counter.

[11] = target: T5, Alpha-1D adrenergic receptor (Homo sapiens) (UniProt P25100)
T5 sequence (whole entry): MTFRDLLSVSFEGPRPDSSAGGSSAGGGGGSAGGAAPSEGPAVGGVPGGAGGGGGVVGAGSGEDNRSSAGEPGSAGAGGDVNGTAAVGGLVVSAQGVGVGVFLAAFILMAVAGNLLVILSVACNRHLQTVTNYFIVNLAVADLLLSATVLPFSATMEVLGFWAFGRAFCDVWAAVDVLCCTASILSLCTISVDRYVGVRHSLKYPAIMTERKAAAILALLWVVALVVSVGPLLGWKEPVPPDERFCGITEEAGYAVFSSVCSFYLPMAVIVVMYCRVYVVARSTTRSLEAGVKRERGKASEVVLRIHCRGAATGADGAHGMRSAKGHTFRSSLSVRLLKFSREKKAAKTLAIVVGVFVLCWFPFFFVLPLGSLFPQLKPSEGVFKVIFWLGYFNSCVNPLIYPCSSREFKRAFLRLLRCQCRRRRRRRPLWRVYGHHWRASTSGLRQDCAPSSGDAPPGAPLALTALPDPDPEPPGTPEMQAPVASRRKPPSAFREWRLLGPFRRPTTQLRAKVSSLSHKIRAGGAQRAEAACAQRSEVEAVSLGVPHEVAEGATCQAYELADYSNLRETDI
Description: PDSP Primary Binding target: ADRA1D - Compounds are tested at 10 uM concentration, plate are incubated at room temperature in the dark for 90 minutes. Reaction are stopped by vacuum filtration onto 0.3% polyethyleneimine soaked filter mats using Filtermate harvester. Scintilation cocktail is then melted onto microwave-dried filters on a hot plate and the radio activity is counted in Microbia counter.

[12] = target: D(1B) dopamine receptor (Homo sapiens) (UniProt P21918)
Chain of D(1B) dopamine receptor (Homo sapiens) (P21918 whole entry): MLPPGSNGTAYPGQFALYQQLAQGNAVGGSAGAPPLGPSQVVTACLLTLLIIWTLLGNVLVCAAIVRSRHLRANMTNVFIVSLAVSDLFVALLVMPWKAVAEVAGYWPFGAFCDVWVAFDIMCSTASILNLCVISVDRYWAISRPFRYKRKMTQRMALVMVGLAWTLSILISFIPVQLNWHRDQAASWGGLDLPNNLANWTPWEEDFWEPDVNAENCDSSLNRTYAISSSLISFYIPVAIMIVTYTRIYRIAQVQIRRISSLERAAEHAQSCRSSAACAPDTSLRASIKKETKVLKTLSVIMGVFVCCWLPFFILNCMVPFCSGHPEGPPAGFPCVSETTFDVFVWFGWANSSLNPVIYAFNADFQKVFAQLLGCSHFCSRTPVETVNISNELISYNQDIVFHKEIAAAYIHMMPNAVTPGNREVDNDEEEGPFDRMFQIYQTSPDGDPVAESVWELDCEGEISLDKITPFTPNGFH
Description: PDSP Primary Binding target: DRD5 - Compounds are tested at 10 uM concentration, plate are incubated at room temperature in the dark for 90 minutes. Reaction are stopped by vacuum filtration onto 0.3% polyethyleneimine soaked filter mats using Filtermate harvester. Scintilation cocktail is then melted onto microwave-dried filters on a hot plate and the radio activity is counted in Microbia counter.

Chain of Delta-type opioid receptor (Homo sapiens) (P41143 whole entry): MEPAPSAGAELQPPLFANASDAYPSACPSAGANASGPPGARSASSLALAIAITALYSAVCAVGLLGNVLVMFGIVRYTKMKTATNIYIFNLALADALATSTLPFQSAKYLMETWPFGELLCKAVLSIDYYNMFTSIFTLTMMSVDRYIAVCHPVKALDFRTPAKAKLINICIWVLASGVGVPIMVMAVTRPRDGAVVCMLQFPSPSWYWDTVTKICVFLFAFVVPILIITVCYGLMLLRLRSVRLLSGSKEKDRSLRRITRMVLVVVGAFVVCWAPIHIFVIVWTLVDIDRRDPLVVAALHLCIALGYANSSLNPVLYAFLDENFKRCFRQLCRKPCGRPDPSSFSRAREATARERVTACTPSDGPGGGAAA
Chain of 5-hydroxytryptamine receptor 5A (Homo sapiens) (P47898 whole entry): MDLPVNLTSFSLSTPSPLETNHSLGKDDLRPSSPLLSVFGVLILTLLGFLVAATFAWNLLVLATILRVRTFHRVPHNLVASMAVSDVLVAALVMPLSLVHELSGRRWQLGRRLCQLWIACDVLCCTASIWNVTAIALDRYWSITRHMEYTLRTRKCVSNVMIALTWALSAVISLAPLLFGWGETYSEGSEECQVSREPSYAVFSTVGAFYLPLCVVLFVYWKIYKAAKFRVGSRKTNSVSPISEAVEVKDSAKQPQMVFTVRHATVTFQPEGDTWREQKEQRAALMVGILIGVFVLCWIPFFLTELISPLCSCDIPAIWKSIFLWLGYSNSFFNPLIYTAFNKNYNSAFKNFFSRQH

Compound | inhibition [1] [%] | inhibition [2] [%] | inhibition [3] [%] | inhibition [4] [%] | inhibition [5] [%] | inhibition [6] [%] | inhibition [7] [%] | inhibition [8] [%] | inhibition [9] [%] | inhibition [10] [%] | inhibition [11] [%] | inhibition [12] [%]
N#Cc1ccc2[nH]cc(CCCCN3CCN(c4ccc5oc(C(N)=O)cc5c4)CC3)c2c1 | 35.4 | 40.6 | -4.48 | 12.6 | 30.6 | 95.5 | 102 | 85.8 | 53.7 | -4.35 | 75.5 | 36.9
CC(C)NCC(O)COc1ccc(CCOCC2CC2)cc1 (configuration not stated) | 3.69 | -3.84 | -4.15 | 1.59 | 20.5 | -7.39 | -1.07 | 1.05 | 19.5 | 4.48 | 5.75 | 6.71
COc1ccc(NS(=O)(=O)c2sc3ccc(Cl)cc3c2C)cc1N1CCNCC1 | 29.8 | 58.1 | 17 | 3.19 | 75.5 | 39.7 | 67.4 | 15.6 | 65.1 | 39.5 | 33 | 22.4
O=S1(=O)c2cccc3cccc(c23)N1CCCN1CCN(c2ccc(F)cc2)CC1 | 8.66 | 58.9 | 10.3 | 1.23 | 56 | 97.8 | 91.6 | 96.9 | 98.1 | 28.7 | 92 | -1.71
COC(=O)C1=C(C)NC(C)=C(C(=O)OCCCN2CCC(c3ccccc3)(c3ccccc3)CC2)[C@H]1c1cccc([N+](=O)[O-])c1 | 94.1 | 68.7 | 40.4 | 61.2 | 95.6 | 98.9 | 83.7 | 98.8 | 98.6 | 79.8 | 83.9 | 51.8
Clc1cccc(COc2cncc(N3CCNCC3)n2)c1 | -4.82 | 13.2 | 33.3 | 82.1 | 28.3 | 11.2 | 86 | 55.6 | 26.2 | 36.1 | 22.3 | 11.8
NC[C@@H]1O[C@H](C23CC4CC(CC(C4)C2)C3)Cc2c1ccc(O)c2O | 3.82 | 20.1 | -9.03 | 12.7 | 12.2 | -1.53 | 14.3 | 38.4 | 56.9 | -5.61 | 3.98 | 82.7
CCCCCNC(=N)N/N=C/c1c[nH]c2ccc(OC)cc12 | 12.6 | 97.6 | 38.2 | 7.96 | 35.1 | 53.9 | 101 | 31.1 | 62.5 | 47.4 | 55.8 | 54.4
Cc1ccccc1C(=O)Nc1ccc(C(=O)N2CCCC(O)c3cc(Cl)ccc32)c(C)c1 (configuration not stated) | 7.13 | 11.7 | 2.3 | 17.3 | 21 | 8.56 | 7.65 | 70.8 | 0.66 | 35.6 | 12.7 | 8.81
COc1cccc([C@@H](C)NCCCc2ccccc2Cl)c1 | 11.8 | 61.2 | 7 | 0.89 | 65.3 | 24 | 54.6 | 70.6 | 15.5 | 9.42 | 20.3 | 8.31
CCc1ccc(OCc2ccccc2C(=O)Nc2ccc3nc(C)cc(N)c3c2)cc1 | -2.98 | 52.3 | 11.9 | 11.1 | 72 | 45.6 | 9.8 | 7.44 | 60.5 | 54.7 | 57.8 | 39.1

From ChEMBL document CHEMBL5442219
